Assay results reported in the C3SDB collision cross section collection.
One block for each compound: values may come before it.

What was measured:
[1] = instrument: TW, calibrated with polyalanine
[2] = instrument: DT, stepped-field
[3] = instrument: DT, single field, calibrated with Agilent tune mix (Agilent)
[4] = instrument: DT, stepped-field; remark: listed apart in the source

Compound: CC(=O)OC[C@]12C[C@H](O)C(C)=C[C@H]1O[C@@H]1[C@H](O)[C@@H](OC(C)=O)[C@@]2(C)[C@]12CO2 [Neosolaniol]
collision cross section (N2) ([1]; [M+NH4]+): 198 Å²

Compound: COc1cc2c(c3oc(=O)c4c(c13)CCOC4=O)[C@@H]1CCO[C@@H]1O2 [Aflatoxin G2]
collision cross section (N2) ([1]; [M+H]+): 166 Å²
collision cross section (N2) ([1]; [M+K]+): 181 Å²
collision cross section (N2) ([1]; [M+Na]+): 176.4 Å²

Compound: C[C@H]1CCCC(=O)CCC/C=C/c2cc(O)cc(O)c2C(=O)O1 [Zearalenone]
collision cross section (N2) ([1]; [M-H]-): 170 Å²

Compound: CC(C)C[C@@H]1NC(=O)[C@H](C)N(C)C(=O)CNC(=O)/C(=C/c2ccccc2)N(C)C1=O [Tentoxin]
collision cross section (N2) ([1]; [M+H]+): 202 Å²

collision cross section (N2) ([2]; [M+H]+): 123.87 Å²
collision cross section (N2) ([2]; [M+Na]+): 132.99 Å²
collision cross section (N2) ([2]; [M-H]-): 120.7 Å²
collision cross section (N2) ([3]; [M+H]+): 123.4 Å²
collision cross section (N2) ([3]; [M-H]-): 116.68 Å²
collision cross section (N2) ([4]; [M+H]+): 123.93 Å²
collision cross section (N2) ([4]; [M+Na]+): 133.41 Å²
Compound: CN1CC(=O)N=C1N [Creatinine]

Compound: CC[C@H](C)[C@H]1C(=O)O[C@H](C(C)C)C(=O)N(C)[C@@H](C(C)C)C(=O)O[C@H](C(C)C)C(=O)N(C)[C@@H](C(C)C)C(=O)O[C@H](C(C)C)C(=O)N1C [Enniatin B1]
collision cross section (N2) ([1]; [M+H]+): 246.4 Å²
collision cross section (N2) ([1]; [M+K]+): 254.7 Å²
collision cross section (N2) ([1]; [M+NH4]+): 253 Å²
collision cross section (N2) ([1]; [M+Na]+): 253.4 Å²

Compound: CC(=O)OC[C@]12CCC(C)=C[C@H]1O[C@@H]1[C@H](O)[C@@H](OC(C)=O)[C@@]2(C)[C@@]12CO2 [Diacetoxyscirpenol]
collision cross section (N2) ([1]; [M+NH4]+): 192 Å²

Compound: CC[C@H](C)[C@@H]1NC(=O)C(C(C)=O)=C1O [Tenuazonic acid]
collision cross section (N2) ([1]; [M+H]+): 135 Å²

Compound: C=C(C)[C@H]1O[C@H]2CC[C@@]3(C)[C@@](O)(CC[C@H]4[C@@H]5OC(C)(C)[C@H]6C[C@@H]7C(=C)Cc8c(Cl)cc9[nH]c(c5c9c8[C@@]76O)[C@@]43C)[C@]23O[C@@H]3[C@H]1O [Penitrem A]
collision cross section (N2) ([1]; [M+H]+): 253 Å²

collision cross section (N2) ([2]; [M-H]-): 169.12 Å²
collision cross section (N2) ([3]; [M+Na]+): 195 Å²
collision cross section (N2) ([3]; [M-H]-): 167.52 Å²
Compound: CCCCCCCCCCCCCCCC(=O)O [Palmitic acid]

Compound: CC(=O)O[C@@H]1[C@@H](O)[C@H]2O[C@@H]3C=C(C)C(=O)[C@@H](O)[C@]3(CO)[C@]1(C)[C@]21CO1 [Fusarenon X]
collision cross section (N2) ([1]; [M+H3C2O2]-): 195 Å²

Compound: CC(=O)OC[C@]12C[C@H](OC(=O)CC(C)C)C(C)=C[C@H]1O[C@@H]1[C@H](O)[C@@H](OC(C)=O)[C@@]2(C)[C@]12CO2 [T-2 toxin]
collision cross section (N2) ([1]; [M+NH4]+): 214 Å²

collision cross section (N2) ([2]; [M+H]+): 131.62 Å²
collision cross section (N2) ([3]; [M+H]+): 130.7 Å²
collision cross section (N2) ([4]; [M+H]+): 131.8 Å²
Compound: NCCCC[C@H](N)C(=O)O [L-Lysine]
